Structures are written as SMILES. “Also recorded” adds a separate entry of the source. Like-named read-outs stand apart in the source and are kept apart here.

In assay [1] the test system is aromatase. Also noted: method as in US EPA ToxCast. The note with it: ref US EPA ToxCast, cited from earlier work; for ToxCast (assays Comments), efficacy: borderline: less than 50% efficacy.
Assay [2] concerns ER. Description: ToxCast ER assays and final ToxCast call. The note with it: for Final "true" call (ToxCast) ER: from active ToxCast assays, cytotoxicity, ToxCast Pathway Model and CERAPP Potency Level; for ToxCast result (ER): overall call from ToxCast data (Supplementary Table 2). An excerpt:
(§1) A rich source of data can be found in the EPA's ToxCast database (US EPA). This contains ED data for ~ 1800 chemicals in more than 700 high-throughput assay endpoints that cover a range of high-level cell responses. The US EPA is running an Endocrine Disruption Screening Program (EDSP), with the aim of prioritising chemicals using high-throughput screening methods and computational toxicology approaches to evaluate thousands of chemicals for ED activities. The OECD framework for ED assessment (OECD [2018]) requires animal testing at higher levels, where relevant in vitro alternatives are missing e.g. for developmental, reproductive, neurological and immune effects. However, such follow-up testing is not possible for the cosmetics industry especially in the EU due to the complete animal testing ban which came into force in March 2013 (EU [2009]). Even for other industries, animal models are not suitable for assessing ED effects due to issues relating to ethics, capacity, speed and relevance (Patisaul et al. [2018]). Therefore, chemicals which cannot be evaluated using in vivo method must be assessed using alternative methods e.g. in silico and in vitro methods listed in Levels 1 and 2 of the framework described in the OECD 150 test guideline (OECD [2018]).
(§2) The performance of different in silico models for ED effects tends to be evaluated on single model for a single effect, such as ER or AR binding, agonism or antagonism (normally by the developer), or a limited number of models using multiple chemicals (Weyrich et al. [2022]). Multi-organisation collaborations have also evaluated multiple models for a specific effect e.g. ER (Mansouri et al. [2016]) and AR (Mansouri et al. [2020]) effects. Therefore, we have conducted a side-by-side comparison of multiple different in silico models covering three pathways in ED, namely ER, AR and aromatase inhibition and compared these with ToxCast-derived final calls, as well as with results from in vitro assays. The efficiency of the in silico models was evaluated as a metric for the ability of the in silico model to generate concrete predictions. […] In vivo data were available for some but not all chemicals; therefore, an evaluation of the performance of the methods was made by comparing the derived overall calls from in silico models with those from the ToxCast database. The final call for each chemical evaluated in the ToxCast assays was made by considering the active-flagged assays and the corresponding cytotoxicity levels, the ToxCast Pathway Model (Browne et al. [2015]) and the CERAPP Potency Level (Mansouri et al. [2016]) for ER effects and the ToxCast Pathway Model (Kleinstreuer et al. [2017]) for AR effects (see Online Resource 1 Supplementary Tables 2, 4 and 6 for the outcome of the ER, AR and aromatase ToxCast assays, additional literature and final calls for each chemical and target).

Assay [3] concerns AR. Kind of assay: ToxCast AR assays and final ToxCast call. The note with it: for Final "true" call (ToxCast): AR effects, from active assays, cytotoxicity and pathway model; for ToxCast result: AR overall call from Supplementary Table 4; for Final "true" call (ToxCast) AR: from ToxCast assays and ToxCast Pathway Model.
From the text: as §1, §2

Assay [4] deals with ER. Set-up: method as in US EPA ToxCast. The note with it: ref US EPA ToxCast, cited from earlier work; for ToxCast 1: (Active assays), ER assay listed as active: each listed assay name = active-flagged assay.
Assay [5] concerns the target T1, AR (Homo sapiens, UniProt P10275).
T1 sequence (P10275 1-920): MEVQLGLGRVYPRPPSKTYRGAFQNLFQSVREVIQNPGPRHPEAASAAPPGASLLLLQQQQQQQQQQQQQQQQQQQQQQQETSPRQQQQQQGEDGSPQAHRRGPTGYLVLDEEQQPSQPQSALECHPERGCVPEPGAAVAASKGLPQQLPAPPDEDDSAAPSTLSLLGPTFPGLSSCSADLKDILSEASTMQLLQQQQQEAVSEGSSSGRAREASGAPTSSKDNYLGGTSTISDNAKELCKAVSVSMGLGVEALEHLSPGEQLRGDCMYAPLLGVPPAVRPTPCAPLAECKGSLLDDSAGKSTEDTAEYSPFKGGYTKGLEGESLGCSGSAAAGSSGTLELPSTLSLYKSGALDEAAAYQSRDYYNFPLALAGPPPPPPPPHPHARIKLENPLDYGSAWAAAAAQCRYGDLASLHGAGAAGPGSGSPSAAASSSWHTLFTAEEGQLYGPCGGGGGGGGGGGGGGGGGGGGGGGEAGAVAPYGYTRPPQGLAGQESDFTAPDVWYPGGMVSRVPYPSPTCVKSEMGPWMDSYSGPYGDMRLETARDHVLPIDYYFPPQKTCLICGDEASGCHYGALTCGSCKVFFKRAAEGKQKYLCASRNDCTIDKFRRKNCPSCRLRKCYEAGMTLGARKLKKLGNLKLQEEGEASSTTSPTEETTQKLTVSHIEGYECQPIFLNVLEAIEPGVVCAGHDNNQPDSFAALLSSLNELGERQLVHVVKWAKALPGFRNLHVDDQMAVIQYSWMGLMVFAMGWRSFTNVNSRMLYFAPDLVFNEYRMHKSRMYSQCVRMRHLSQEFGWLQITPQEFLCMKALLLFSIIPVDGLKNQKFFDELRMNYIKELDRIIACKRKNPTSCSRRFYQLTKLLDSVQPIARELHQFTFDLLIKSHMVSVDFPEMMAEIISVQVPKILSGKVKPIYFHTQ
Kind of assay: (anti-)AR CALUX receptor transactivation assay. The format is cell-based. Set-up: expressed in transfected cells; host or cells: CALUX cells (U2-OS is named only for the cytotoxicity CALUX). On the procedure:
The human CALUX® assays were used to measure the impact of test compounds on estrogen and androgen pathways. […] Chemicals can activate (or inactivate, in the case of an antagonistic activity) a ligand-specific pathway by binding to the receptor (ER, AR), after which the receptor-ligand complex binds to specific DNA REs […], resulting in increased (or decreased) cellular expression of a marker protein (e.g., luciferase).
Chemicals were dissolved and diluted in DMSO. […] The cytotoxicity of each test chemical was assessed using the U2-OS based cytotoxicity CALUX bioassay. Concentrations causing >20% reduction of luminescence were considered cytotoxic. […] Luciferase production was quantified by measuring luminescence following addition of luciferin. For antagonist assays, a fixed concentration of receptor agonist was co-incubated with a range of concentrations of the test chemical. […] For the AR assays, dihydrotestosterone was the positive control for agonistic effects and flutamide was the positive control for antagonist effects.
Each test chemical was tested in triplicates in two independent experiments.

Turning to `C[C@]12CCC(=O)C[C@@H]1CC[C@@H]1[C@@H]2CC[C@@]2(C)[C@H]1CC[C@]2(C)O` [Mestanolone, mestanolone, reference compound], in assay [1], the “ToxCast (Aromatase assays), positive/total” value is reported as 0/2 positive. Also, in assay [2], the “Final "true" call (ToxCast) ER” value was “Positive for agonism and antagonism”; the “ToxCast result (ER)” value was “ER agonist and antagonist”. In addition, in assay [3], the “Final "true" call (ToxCast)” value was “Positive for agonism”, the ToxCast result is listed as “AR agonist only” and the “Final "true" call (ToxCast) AR” value was “Positive for agonism”. For the same compound, in assay [4] (for the assay named in the same line), the “ToxCast 1: (Comments)” value is reported as “High active”. In addition, in assay [4], the “ToxCast 1: (Active assays), positive/total ER assays” value was 2/6 positive and the “ToxCast conclusion from assays result” value is “Endocrine Disruption Potential.Significant Estrogen Receptor activity seen”.
In the case of `O=c1c(-c2ccc(O)cc2)coc2cc(O)ccc12` [Daidzein, daidzein], the “ToxCast (Aromatase assays), positive/total” value in assay [1] is listed as 0/2 positive. In assay [2], the “Final "true" call (ToxCast) ER” value was “Positive for agonism and antagonism”; the “ToxCast result (ER)” value is “ER agonist and antagonist”. In addition, the “outcome in the AR transactivation assay” value in assay [5] is recorded as “negative”. Besides, the “Final "true" call (ToxCast)” value in assay [3] is given as “Inconclusive”. In addition, the “ToxCast conclusion from assays result” value in assay [4] is listed as “Endocrine Disruption Potential.Significant Estrogen Receptor activity seen”.
For the compound `CC(C)(C)CC(C)(C)c1ccc(O)cc1` [4-TO, 4-tert-octylphenol], in assay [1], the “ToxCast (assays Comments), efficacy” value is listed as 31.35% and the “ToxCast (Aromatase assays), positive/total” value was 2/2 positive. Also, the “ToxCast (assays Comments), efficacy” value in assay [1] (listed as 4-tert-Octylphenol) was “Boarderline: less than 50% efficacy (31.35%)”. Further, the “ToxCast (Aromatase assays), assay listed as active” value in assay [1] (each listed assay name = active assay) is listed as “TOX21_Aromatase_Inhibition; also recorded: TOX21_Aromatase_Inhibition_viability”. Moreover, in assay [2], the “Final "true" call (ToxCast) ER” value is “Positive for agonism” and the “ToxCast result (ER)” value is on record as “ER agonist only”. The “LEC, AR antagonism” value in assay [5] is recorded as 0.44 µM. Besides, in assay [3], the “Final "true" call (ToxCast)” value was “Positive for antagonism”, the ToxCast result was “AR antagonist only” and the “Final "true" call (ToxCast) AR” value was “Positive for antagonism”. Also, in assay [4], the “ToxCast 1: (Active assays), positive/total ER assays” value is recorded as 20/21 positive and the “ToxCast conclusion from assays result” value was “Endocrine Disruption Potential.Significant Estrogen Receptor activity seen”.
Turning to `CCCCN(CCCC)c1ccc(C(=O)c2ccccc2C(=O)O)c(O)c1` [DBABA, 2-[4-(dibutylamino)-2-hydroxybenzoyl]benzoic acid], the “ToxCast (Aromatase assays), positive/total” value in assay [1] is 0/2 positive. The “Final "true" call (ToxCast) ER” value in assay [2] is listed as “Inconclusive”. Moreover, in assay [5], the “outcome in the AR transactivation assay” value was “negative”. In assay [3], the “Final "true" call (ToxCast)” value is given as “Negative”, the ToxCast result is listed as “Negative” and the “Final "true" call (ToxCast) AR” value is “Negative”. For the same compound, the “ToxCast 1: (Active assays), ER assay listed as active” value in assay [4] (assay TOX21_ERa_BLA_Antagonist_ratio) is given as “TOX21_ERa_BLA_Antagonist_ratio”. Also, in assay [4] (assay TOX21_ERa_BLA_Antagonist_viability), the “ToxCast 1: (Active assays), ER assay listed as active” value is given as “TOX21_ERa_BLA_Antagonist_viability”. In addition, in assay [4], the “ToxCast 1: (Active assays), positive/total ER assays” value is 2/6 positive and the “ToxCast conclusion from assays result” value was “Endocrine Disruption Potential.Significant Estrogen Receptor activity seen”.

These data come from PMC10761396, “Evaluation of new alternative methods for the identification of estrogenic, androgenic and steroidogenic effects: a comparative in vitro/in silico study” (Archives of Toxicology, 2023).
